From patent US10220025B1, “Self-emulsifying formulation of CARP-1 functional mimetics” (Florida A&M University, priority 2016, dated 2019)

System: mammospheres of parental and drug-resistant MDA-MB-468 TNBC cells
Assay: three-dimensional mammosphere assay
Assay type: cell-based, human
Procedure: The TNBC cells were obtained from tumors derived from parental and drug-resistant cells or from a two-dimensional culture plate with ˜70-80% confluence. The cells were washed twice in 1×PBS and trypsinized following established protocols. The cells were pelleted at 200×g at room temperature, and re-suspended in 5 ml of mammosphere media (DMEM/F12 supplemented with 2 mM L-glutamine, 100 U/ml penicillin, […] streptomycin, 1×B27 supplement, 20 ng/ml recombinant human epidermal growth factor (EGF; Sigma), 10 ng/ml recombinant human basic fibroblast growth factor (bFGF; R&D Systems). The cell suspension of ˜5000 viable cells per ml was then seeded in an ultra-low adherent 60 mm plate and incubated at 37° C. and 5% CO2 for two weeks without disturbing the plates. After the mammospheres formed, fresh media with or without 10 μM CFM-4.16 was added and the cells incubated for additional 24 h at 37° C. and 5% CO2. The mammospheres in the untreated and treated plates were photographed, and the cells were then dissociated to determine their viabilities by the MTT assay as described [Lombardo Y, de Giorgio A, Coombes C R, Stebbing J, Castellano L. Mammosphere Formation Assay from Human Breast Cancer Tissues and Cell Lines. J. Vis. Exp. 2015; 97: e52671. doi:10.3791/52671].

In the case of `O=C1N(Cc2ccccc2Cl)c2ccccc2C12NN=C(c1cccc(Cl)c1)S2` (centres unmarked) [CFM-4.16], the mammosphere integrity (10 μM, 24 h, FIG. 15A) is reported as “disintegration of mammospheres” and the “viability of mammospheres vs DMSO-treated controls” value (parental and ADR-resistant cells, FIG. 15B) is reported as “robust decline in viability”.
